In patent US11254671B2, “Chemical compounds” (GLAXOSMITHKLINE INTELLECTUAL PROPERTY DEVELOPMENT LIMITED, priority 2017, dated 2022):

Tested on: type I collagen deposition in primary lung fibroblasts
Assay: Highthroughput type I collagen deposition (scar-in-a-jar) high content screening assay
Format: cell-based
Settings: Homo sapiens, Primary lung fibroblast, 72 h, human pulmonary fibroblasts, TGF-β 1 ng/ml, Ficoll crowding, mean of multiple experiments, read-out: mean pIC50, inhibition of type I collagen deposition (converted)
Description: Example 53 Highthroughput Type I Collagen Deposition (Scar-in-a-Jar) High Content Screening Assay
Highthroughput, cellular type I collagen deposition was measured by adapting a published method; scar-in-a-jar (Chen et al., 2009) to primary lung fibroblasts derived from human tissue and combining with high content analysis to permit fluorescent quantification of collagen deposited in the extracellular matrix (ECM). The human biological samples were sourced ethically and their research use was in accord with the terms of the informed consents
Test compounds were dissolved in 100% DMSO to give 10 mM (stocks) and further diluted to give half log dilutions to generate an 11 point concentration response curve. 1 ul was transferred to 384-well plates (Greiner Group, Kremsmunster, Austria, Catalogue No Greine 781280r).
Human pulmonary fibroblasts were maintained in DMEM media (Gibco, Catalogue No 21969) supplemented with 4 mM L-glutamine (Gibco Catalogue No 25030-024) and 10% heat inactivated FBS (Gibco, Catalogue No 10099-141) at 37° C. in 10% CO2. Cells were harvested and resuspended at 4×10^6 cells/ml in a T175 cell culture flask (BD Falcom, Catalogue No: 353112) containing 50 mL of culture media. After 4 days 37° C. in 10% CO2, cells were harvested and seeded at 4000 cells per well (50 μL/well) into 384-well plates (BD Falcon, Catalogue No 353962Greiner) in assay media (0.4% heat inactivated FBS, 4 mM L-glutamine). Plates were sealed with breathable seals (Sigma, Catalogue No. BEM-1). Assay plates were incubated for 72 h at 37° C. in 10% CO2.
Assay media was supplemented with 112.5 mg/ml Ficoll 70 (Sigma, Catalogue No F2878), 75 mg/ml Ficoll 400 (Sigma, Catalogue No F4375) and 50 μg/ml ascorbic acid (Sigma, Catalogue No A8960). 30 μL assay media were added to 1 μl compound (37 μM compound concentration in 1% DMSO). Diluted compounds (10 μL) were transferred to plates containing cells and incubated for 3 h at 37° C. in 10% CO2. Transforming growth factor (TGF)-β (R&D systems, Catalogue No 100-B/CF) was reconstituted to give 10 μg/mL (stock) and further diluted in assay media containing Ficoll and ascorbic acid (1 in 3333). TGF-β was added to cell plates (1 ng/ml final) and cells incubated for 72 h at 37° C. in 10% CO2.
Media was aspirated from cells and 30 μL/well 100% ice-cold methanol added and incubated at RT for 5 min to fix cells. Methanol was aspirated and cells washed with PBS (3×). To block and permeabilise, cells were incubated with PBS containing 1% BSA and 0.1% Triton X 100 for 20 min, followed by PBS wash (3×). Cells were incubated with mouse anti human type I collagen monoclonal antibody (Sigma, Catalogue No C2456) diluted 1:1000 in PBS for 24 h at 4° C. Cells were washed with PBS containing 0.1% Tween-20 (3×) and incubated with secondary alexa fluor 488 goat-anti-mouse antibody (Invitrogen, Catalogue No A11001, 1 in 500 in PBS) and Hoechst 33342 (Sigma, Catalogue No H21492), 1 in 1000 in PBS) for 1 h at RT, prior to washing with PBS containing 0.1% Tween (×4).
Type I collagen immunoreactivity was detected using the INCell 2000 Analyzer (GE Healthcare, INcell 2000) set to excitation and emission wavelengths for DAPI and FITC with laser focus and exposure adjusted to appropriate levels. Images were imported and analysed using Columbus software (Perkin Elmer) and computational algorithms to quantify “total collagen area” and “cell count”.
Data analysis was performed by determining % inhibition values for test compounds relative to the minimum (media only) and maximum responses (TGF-βstimulation) with non-linear regression analysis to determine IC50 values for test compounds.

Compound | IC50
CC[C@H]1COCCN1c1cc(C2(S(=O)(=O)N(C)C)CCOCC2)cc(-c2ccc3[nH]c(CNC)cc3n2)n1 [Example 31, 4-{2-[(3S)-3-ethylmorpholin-4-yl]-6-{2-[(methylamino)methyl]-1H-pyrrolo[3,2-b]pyridin-5-yl}pyridin-4-yl}-N,N-dimethyloxane-4-sulfonamide] | 39.8 to 100 nM
CC[C@H]1COCCN1c1cc(C(C)(C)S(C)(=O)=O)cc(-c2ccc3[nH]c(CN)cc3n2)n1 [Example 21, 1-(5-{6-[(3S)-3-ethylmorpholin-4-yl]-4-(2-methanesulfonylpropan-2-yl)pyridin-2-yl}-1H-pyrrolo[3,2-b]pyridin-2-yl)methanamine] | 39.8 to 1000 nM
CC[C@H]1COCCN1c1cc(C(C)(C)S(N)(=O)=O)cc(-c2ccc3[nH]c(CNC)cc3n2)n1 [Example 28, 2-{2-[(3S)-3-ethylmorpholin-4-yl]-6-{2-[(methylamino)methyl]-1H-pyrrolo[3,2-b]pyridin-5-yl}pyridin-4-yl}propane-2-sulfonamide] | 39.8 to 1000 nM
CNCc1cc2nc(-c3cc(C(C)(C)S(C)(=O)=O)cc(N4[C@@H]5CC[C@H]4COC5)n3)ccc2[nH]1 [Example 3, 1-(5-(6-((1R,5S)-3-oxa-8-azabicyclo[3.2.1]octan-8-yl)-4-(2-(methylsulfonyl)propan-2-yl)pyridin-2-yl)-1H-pyrrolo[3,2-b]pyridin-2-yl)-N-methylmethanamine] | 39.8 to 1000 nM
CNCc1cc2nc(-c3cc(C(C)(C)S(C)(=O)=O)cc(N4C5CCCC4COC5)n3)ccc2[nH]1 [Example 5, 1-(5-(6-(3-oxa-9-azabicyclo[3.3.1]nonan-9-yl)-4-(2-(methylsulfonyl)propan-2-yl)pyridin-2-yl)-1H-pyrrolo[3,2-b]pyridin-2-yl)-N-methylmethanamine] | 39.8 to 1000 nM
CC[C@H]1COCCN1c1cc(CS(C)(=O)=O)cc(-c2ccc3[nH]c(CNC)cc3n2)n1 [Example 13, (S)-1-(5-(6-(3-ethylmorpholino)-4-((methylsulfonyl)methyl)pyridin-2-yl)-1H-pyrrolo[3,2-b]pyridin-2-yl)-N-methylmethanamine] | 39.8 to 1000 nM
CNCc1cc2nc(-c3cc(CS(C)(=O)=O)cc(N4CC5CCC(C4)O5)n3)ccc2[nH]1 [Example 25, ({5-[4-(methanesulfonylmethyl)-6-{8-oxa-3-azabicyclo[3.2.1]octan-3-yl}pyridin-2-yl]-1H-pyrrolo[3,2-b]pyridin-2-yl}methyl)(methyl)amine] | 39.8 to 1000 nM
CNCc1cc2nc(-c3cc(C(F)(F)S(C)(=O)=O)cc(N4CCOC[C@@H]4C)n3)ccc2[nH]1 [Example 12, (S)-1-(5-(4-(difluoro(methylsulfonyl)methyl)-6-(3-methylmorpholino)pyridin-2-yl)-1H-pyrrolo[3,2-b]pyridin-2-yl)-N-methylmethanamine] | 39.8 to 1000 nM
CC[C@H]1COCCN1c1cc(CS(C)(=O)=O)cc(-c2ccc3[nH]c(CO)cc3n2)n1 [Example 34, (5-{6-[(3S)-3-ethylmorpholin-4-yl]-4-(methanesulfonylmethyl)pyridin-2-yl}-1H-pyrrolo[3,2-b]pyridin-2-yl)methanol] | 39.8 to 1000 nM
CC[C@H]1COCCN1c1cc(C2(S(C)(=O)=O)CC2)cc(-c2ccc3[nH]c(CNC)cc3n2)n1 [Example 19, [(5-{6-[(3S)-3-ethylmorpholin-4-yl]-4-(1-methanesulfonylcyclopropyl)pyridin-2-yl}-1H-pyrrolo[3,2-b]pyridin-2-yl)methyl](methyl)amine] | 39.8 to 1000 nM
CCS(=O)(=O)C(C)(C)c1cc(-c2ccc3[nH]c(CNC)cc3n2)nc(N2CCOC[C@@H]2C)c1 [Example 7, (S)-1-(5-(4-(2-(ethylsulfonyl)propan-2-yl)-6-(3-methylmorpholino)pyridin-2-yl)-1H-pyrrolo[3,2-b]pyridin-2-yl)-N-methylmethanamine] | 39.8 to 1000 nM
CNCc1cc2nc(-c3cc(C4(S(C)(=O)=O)CC4)cc(N4CCOC[C@@H]4C)n3)ccc2[nH]1 [Example 20, ({5-[4-(1-methanesulfonylcyclopropyl)-6-[(3S)-3-methylmorpholin-4-yl]pyridin-2-yl]-1H-pyrrolo[3,2-b]pyridin-2-yl}methyl)(methyl)amine] | 39.8 to 1000 nM
CC[C@H]1COCCN1c1cc(CS(=O)(=O)N(C)C)cc(-c2ccc3[nH]c(CNC)cc3n2)n1 [Example 17, (S)-1-(2-(3-ethylmorpholino)-6-(2-((methylamino)methyl)-1H-pyrrolo[3,2-b]pyridin-5-yl)pyridin-4-yl)-N,N-dimethylmethanesulfonamide] | 39.8 to 1000 nM
CC[C@H]1COCCN1c1cc(C(C)(C)S(=O)(=O)C2CC2)cc(-c2ccc3[nH]c(CNC)cc3n2)n1 [Example 9, (S)-1-(5-(4-(2-(cyclopropylsulfonyl)propan-2-yl)-6-(3-ethylmorpholino)pyridin-2-yl)-1H-pyrrolo[3,2-b]pyridin-2-yl)-N-methylmethanamine] | 39.8 to 100 nM
CNCc1cc2nc(-c3cc(CS(C)(=O)=O)cc(N4CCOC[C@@H]4C)n3)ccc2[nH]1 [Example 6, (S)—N-methyl-1-(5-(6-(3-methylmorpholino)-4-((methylsulfonyl)methyl)pyridin-2-yl)-1H-pyrrolo[3,2-b]pyridin-2-yl)methanamine] | 39.8 to 1000 nM
CC[C@H]1COCCN1c1cc(CS(=O)(=O)NC)cc(-c2ccc3[nH]c(CNC)cc3n2)n1 [Example 30, 1-{2-[(3S)-3-ethylmorpholin-4-yl]-6-{2-[(methylamino)methyl]-1H-pyrrolo[3,2-b]pyridin-5-yl}pyridin-4-yl}-N-methylmethanesulfonamide] | 39.8 to 1000 nM
CC[C@H]1COCCN1c1cc(CS(=O)(=O)N(C)C)cc(-c2ccc3[nH]c(CO)cc3n2)n1 [Example 35, 1-{2-[(3S)-3-ethylmorpholin-4-yl]-6-[2-(hydroxymethyl)-1H-pyrrolo[3,2-b]pyridin-5-yl]pyridin-4-yl}-N,N-dimethylmethanesulfonamide] | 39.8 to 1000 nM
CC[C@H]1COCCN1c1cc(C2(S(C)(=O)=O)CCOCC2)cc(-c2ccc3[nH]c(CO)cc3n2)n1 [Example 33, (5-{6-[(3S)-3-ethylmorpholin-4-yl]-4-(4-methanesulfonyloxan-4-yl)pyridin-2-yl}-1H-pyrrolo[3,2-b]pyridin-2-yl)methanol] | 39.8 to 1000 nM
CNCc1cc2nc(-c3cc(C(C)(C)S(C)(=O)=O)cc(N4CC5CCC(C4)O5)n3)ccc2[nH]1 [Example 4, 1-(5-(6-(8-oxa-3-azabicyclo[3.2.1]octan-3-yl)-4-(2-(methylsulfonyl)propan-2-yl)pyridin-2-yl)-1H-pyrrolo[3,2-b]pyridin-2-yl)-N-methylmethanamine] | 39.8 to 1000 nM
CNCc1cc2nc(-c3cc(C4(S(C)(=O)=O)CCOCC4)cc(N4C5CCC4COC5)n3)ccc2[nH]1 [Example 40, ({5-[4-(4-methanesulfonyloxan-4-yl)-6-{3-oxa-8-azabicyclo[3.2.1]octan-8-yl}pyridin-2-yl]-1H-pyrrolo[3,2-b]pyridin-2-yl}methyl)(methyl)amine] | 39.8 to 1000 nM
CC[C@H]1COCCN1c1cc(C2(S(=O)(=O)C3CC3)CC2)cc(-c2ccc3[nH]c(CNC)cc3n2)n1 [Example 11, (S)-1-(5-(4-(1-(cyclopropylsulfonyl)cyclopropyl)-6-(3-ethylmorpholino)pyridin-2-yl)-1H-pyrrolo[3,2-b]pyridin-2-yl)-N-methylmethanamine] | 39.8 to 100 nM
CNCc1cc2nc(-c3cc(C(C)(C)S(C)(=O)=O)cc(N4CCOC[C@@H]4C)n3)ccc2[nH]1 [Example 2, (S)—N-methyl-1-(5-(6-(3-methylmorpholino)-4-(2-(methylsulfonyl)propan-2-yl)pyridin-2-yl)-1H-pyrrolo[3,2-b]pyridin-2-yl)methanamine] | 39.8 to 1000 nM
